Assay results published in patent publication US9625448B2, “Double caged GABA compounds, bis-CNB-GABA” (The Trustees of Princeton University, priority 2014, dated 2017).
Entries after “also recorded” stand apart in the source; their conditions may differ. Like-named read-outs stand apart in the source and are kept apart here.

How the values were obtained:
[1] = Quantum yield of photolysis; assay type: physicochemical; conditions: 254 nm light
Description: Quantum yield was a more difficult characteristic to determine. Most published routes of determining quantum yield rely on exposing the compound to a known amount of light and calculating the percent conversion of caged compound to substrate. However, this often requires laser sources and equipment beyond the scope of available facilities. Therefore, it was necessary to develop a way to assess quantum yield with a more practical method. As an alternative, quantum yield was determined by exposing a compound to light alongside a caged compound of known quantum yield. The percent conversion to product of both can be determined, and quantum yield of the unknown caged compound can be calculated using the known quantum yield of the standard.
This method was employed using single-caged CNB-GABA, with a quantum yield of 0.14 (Matsuzaki et al., 2010 Nature Chemical Biology, 6, 255-257, which is incorporated herein by reference as if fully set forth). Referring to this figure, GABA backbone is shown in light gray.
Equimolar amounts of single-caged GABA and bis-CNB-GABA were stirred in separate cuvettes in pH 7.0 phosphate buffer solution and exposed to 254 nm light for 16.5 minutes. An internal standard (1,2-dimethoxyethane) of known amount was then added to each solution, and the moles of GABA released from each compound was determined by ^1HNMR. The peaks corresponding to GABA as well as those from the internal standard were then identified and integrated. From this, moles of GABA and percent conversion were calculated for both bis-CNB-GABA and mono-CNB-GABA. FIG. 34 illustrates NMR data used to determine quantum yield. Referring to FIG. 34, the […] on the top illustrates bis-CNB-GABA before light exposure. Arrows denote methylene peaks of bis-CNB-GABA. Integrated peaks in each spectrum correspond to di-methoxyethane, used as an internal standard. […]
Quantum yield was determined by uncaging bis-CNB-GABA alongside a caged compound of known quantum yield (mono-CNB-GABA, QY=0.16, from Invitrogen). […]

glutamate receptors = assay: Spontaneous EPSCs / miniature AMPA currents recorded from cerebellar interneurons; assay type: cell-based
Description: Bis-CNB-GABA was applied in vitro. Currents were recorded from cerebellar interneurons. […] FIG. 35 (right) illustrates response traces before and after application of bis-CNB-GABA. FIG. 35 (left) illustrates summary of data. FIG. 36 illustrates effects of 1 mM bis-CNB-GABA on spontaneously evoked miniature glutamate and miniature GABA currents in cerebellar interneuron.
FIG. 37 illustrates effects of uncaging. […] Referring to FIG. 37 (bottom), the graph illustrates uncaging at 365 nm with LED in the presence of 3 mM gabazine.
As a third and final test of the synaptic effects of bis-CNB-GABA, we measured its impact on spontaneous glutamatergic postsynaptic currents (EPSCs) recorded from MLIs. Referring to FIGS. 43B and 43E, with this configuration, no change in the amplitude of the EPSCs was observed (FIG. 43B, bottom) even with concentrations of bis-CNB-GABA up to 2 mM (FIG. 43E, p=0.4, Spearman rank order correlation test).

[2] = cited from earlier work

Row | SMILES | quantum yield ([1]; pH 7.0 phosphate buffer, relative to CNB-GABA (0.14)) | quantum yield at the N-position ([1]; relative to mono-O-CNB-GABA) | quantum yield at the O-position ([1]; relative to mono-O-CNB-GABA) | effect on spontaneously-evoked AMPA currents (glutamate receptors; 1 mM (FIG. 36), FIG. 39) | effect on amplitude of miniature AMPA currents (glutamate receptors; 1.223 mM) | effect on miniature AMPA currents (glutamate receptors; 1.233 mM and 1.0 mM) | effect on spontaneous EPSC size / amplitude (glutamate receptors; all concentrations tested, up to 2 mM) | known quantum yield (QY) of standard ([2]; from Invitrogen) | quantum yield ([2]; literature values)
1 | O=C(CCCNC(C(=O)O)c1ccccc1[N+](=O)[O-])OC(C(=O)O)c1ccccc1[N+](=O)[O-] (stereo not drawn) [bis-CNB-GABA, 2-((4-(Carboxy(2-nitrophenyl)methoxy)-4-oxobutyl)amino)-2-(2-nitrophenyl)acetic acid] | 0.07 | 0.032 | 0.15 | no significant effect | no significant effect | no significant effect | unaffected; also recorded: no change | – | –
2 | NCCCC(=O)OC(C(=O)O)c1ccccc1[N+](=O)[O-] (stereo not drawn) [mono-CNB-GABA] | – | – | – | – | – | – | – | 0.16 | 0.14
